Assay results taken from patent US20130158098A1, “Alkenyl Substituted Cycloaliphatic Compounds as Chemical Inducers of Proximity” (priority 2010, published 2013).

What was measured:
[1] = biological target: T1, GFP-PYLcs and ABIcs localization fusion proteins (Arabidopsis thaliana, UniProt Q8VZS8); assay: ABA-induced subcellular relocalization of PYLcs fusion proteins; format: cell-based
T1 construct: A fragment of PYL1 (aa 33-209) is fused to full length GFP or SOS; HA (from the reverse primer); expressed in transfected cells; host or cells: HEK 293 / HEK 293T
T1 sequence (Q8VZS8 33-209): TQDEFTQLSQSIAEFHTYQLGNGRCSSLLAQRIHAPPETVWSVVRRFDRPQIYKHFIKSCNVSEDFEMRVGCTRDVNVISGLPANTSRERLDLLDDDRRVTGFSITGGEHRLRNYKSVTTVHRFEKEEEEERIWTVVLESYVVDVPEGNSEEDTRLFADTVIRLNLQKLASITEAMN
T1 sequence (P49597 126-423 partner): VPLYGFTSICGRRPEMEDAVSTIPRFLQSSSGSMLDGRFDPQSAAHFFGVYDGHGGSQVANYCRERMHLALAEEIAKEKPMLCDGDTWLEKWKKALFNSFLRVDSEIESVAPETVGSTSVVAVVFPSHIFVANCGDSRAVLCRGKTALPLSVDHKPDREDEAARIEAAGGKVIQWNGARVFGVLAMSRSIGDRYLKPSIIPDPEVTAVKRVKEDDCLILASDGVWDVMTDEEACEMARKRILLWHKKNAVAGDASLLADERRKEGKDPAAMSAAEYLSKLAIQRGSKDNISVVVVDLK
Procedure: (§1) A fragment of ABI1 (aa 126-423) is either fused to full length mouse Brg, full length mouse Numb, full length human CD4 or myristoylation signal. A fragment of PYL1 (aa 33-209) is fused to full length GFP or SOS. Full length SOS is fused either to myristoylation signal or three copies of FKBP12.
(§2) Cells grown on glass coverslips were washed in phosphate-buffered saline (PBS) and fixed with 4% paraformaldehyde (PFA, prepared in PBS) at room temperature for 20 min. After three 5-min washes in PBS, the cells were permeabilized with 5% normal goat serum and 0.1% Triton X-100 in PBS at room temperature for 30 min and incubated with primary antibodies (FLAG antibody M2, Agilent, cat. #200472-21) at 4° C. overnight in the same buffer. The slides were subsequently washed three times with PBS (5 min each wash) and then incubated with Alexa fluorophore 594-conjugated secondary antibodies (Molecular Probes) for 1 hour at room temperature in the dark. Slides were washed three times in PBS for 5 min. Finally, the slides were mounted in Vectashield containing 4′,6-diamidino-2-phenylindole (DAPI; H-1500, Vector Laboratories) and imaged (63×) with a Leica DM5000B microscope.
(§3) The area and integrated fluorescence intensity of the whole cell and the nucleus were measured with Fiji (an open-source image processing package based on ImageJ) for images from the cytoplasmic or nuclear localization experiments. The area and the integrated fluorescence intensity of the cytoplasm were calculated by subtracting the value of the nucleus from the whole cell. The mean fluorescence intensity of nucleus or cytoplasm was calculated by dividing the integrated fluorescence intensity with the area of each subcellular compartment. The ratio between nuclear or cytoplasmic distribution was calculated by comparing the corresponding mean fluorescence intensity. Twenty cells were measured in each experiment.
(§4) The activities of proteins are often regulated by their subcellular localization. In another variation of domain reconstitution, the ability of ABA-induced proximity to control the localization of a chosen protein was tested. Fusions of ABIcs to specific subcellular localization domains were constructed and ABA was used to dimerize these ABIcs localization fusion proteins to green fluorescent protein (GFP)-fused PYLcs. The relocation of GFP-PYLcs to four subcellular locations was induced by fusing ABIcs to (i) Numb to serve as a cytoplasmic localization partner (Dho, S. E. et al. (1999) Characterization of four mammalian Numb protein isoforms: Identification of cytoplasmic and membrane-associated variants of the phosphotyrosine binding domain. J. Biol. Chem. 274, 33097-33104), (ii) to a nuclear localization sequence (NLS) or to Brg1 (Brm/SWI2-related gene 1) to serve as nuclear localization partners (Khavari, P. A. et al. (1993) BRG1 contains a conserved domain of the SWI2/SNF2 family necessary for normal mitotic growth and transcription. Nature 366, 170-174), (iii) to CD4 (cluster of differentiation 4) to serve as a plasma membrane localization partner (Sattentau, Q. J. et al. (1988) The CD4 antigen: Physiological ligand and HIV receptor. Cell 52, 631-633), or (iv) to a myristoylation (myr) sequence to serve as a plasma membrane and an intracellular membrane localization partner (Holsinger, L. J. et al. (1995) Signal transduction in T lymphocytes using a conditional allele of Sos. Proc. Natl. Acad. Sci. U.S.A. 92, 9810-9814)).

[2] = biological target: T2, GFP-PYLcs and ABIcs localization fusion proteins (Arabidopsis thaliana, UniProt Q8VZS8); assay: as above; format: cell-based; conditions: NLS-ABIcs present; HEK 293T cells
T2 construct: A fragment of PYL1 (aa 33-209) is fused to full length GFP or SOS; HA (from the reverse primer); expressed in transfected cells; host or cells: HEK 293 / HEK 293T
T2 sequence (Q8VZS8 33-209): T1 sequence (Q8VZS8 33-209)
T2 sequence (P49597 126-434 partner): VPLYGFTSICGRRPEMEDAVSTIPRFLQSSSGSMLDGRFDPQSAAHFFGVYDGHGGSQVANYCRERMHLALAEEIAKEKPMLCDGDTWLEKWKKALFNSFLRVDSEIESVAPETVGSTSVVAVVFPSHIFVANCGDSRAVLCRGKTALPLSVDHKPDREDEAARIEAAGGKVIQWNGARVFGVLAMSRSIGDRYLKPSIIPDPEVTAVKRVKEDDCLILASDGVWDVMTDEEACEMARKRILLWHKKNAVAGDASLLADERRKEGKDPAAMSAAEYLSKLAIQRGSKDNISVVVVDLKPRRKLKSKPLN
Procedure: as §1, §2, §3, §4

CC1=CC(=O)CC(C)(C)C1(O)/C=C/C(C)=C/C(=O)O (centres unmarked) [ABA, abscisic acid]
time to relocalization of mCherry-PYLcs to Brg-ABIcs (nucleus) ([1]; 293T cells, ABA and Rap added together): ≤ 30 min | membrane localization of GFP-PYLcs to myr-ABIcs, specificity ([1]; 293T cells, ABA or Rap added): observed only when the matching small molecule was added | time to relocation of GFP-PYLcs to the nucleus or membrane ([1]; Brg1-ABIcs or CD4-ABIcs, HEK 293T cells): ≤ 30 min | time to cytoplasmic accumulation of GFP-PYLcs ([1]; Numb-ABIcs, HEK 293T cells): ≤ 30 min | redistribution of cytoplasmic Numb-GFP-PYLcs into the nucleus [2]: triggered the redistribution
